Consider 2 compounds from patent publication US20230001026A1, “PHAR[…] UNITS AND METHODS FOR CONCOMITANT ADMINISTRATION OF RADIOTRACERS” (LikeMinds, Inc., priority 2019, published 2023).

Several values for one entry are separate records, joined by “and”; a condition that tells them apart may be missing. Identical values can stand only once. Like-named read-outs stand apart in the source and are kept apart here.

The target in series [1] is T1, DAT in the striatum (Homo sapiens, UniProt Q01959). The settings on record: cited from earlier work; for time after injection until binding to striatal DAT becomes stable: post-injection, before SPECT imaging.
Series [2] addresses DAT (Homo sapiens, UniProt Q01959). The settings on record: package insert; cited from earlier work.
Series [3] deals with T1, DAT in the striatum. The experiment in a line: SPECT imaging of radiotracer binding to DAT after i.v. injection. Details: from tissue; host or cells: striatum of living patients (in vivo SPECT). The format is in vivo. An excerpt:
More recently, the SN to striatum pathway of a live patient has become assessible by viewing images of the striatum obtained by various noninvasive imaging techniques. Such non-invasive methods use single photon emission computed tomography (SPECT) assessment measuring the uptake/binding of a radiolabeled imagining agent that binds to dopamine transporters (DAT) in the striatum. Currently, the only SPECT radiopharmaceutical approved for use in the United States, the European Union, and Canada is DaTSCAN® (N-ω-fluoropropyl-2β-carbomethoxy-3β-(4-iodophenyl) nortropane), which is radiolabeled with ^123I. After injection of DaTSCAN, the patient must wait 3 hr for its uptake into systemic circulation, and transition through the blood brain barrier into the parenchyma of the brain tissue until it reaches stable binding to DAT. At that point, radioactivity (counts) can be collected and quantified, and a visual image can be acquired via SPECT. The visual image is compiled for reading by experts who then determine if there is evidence of DAT density loss in the striatum. In the case of a patient with Parkinson's disease, an asymmetrical pattern of binding in the striatum is observed in the image, whereas in the non-parkinsonian tremor patient, the pattern is visible as bilateral and symmetrical (i.e., “normal) (Lewis et al. (2012) Practitioner 1748: 21-24). This information is used by treating physicians in determining diagnosis and subsequent treatment.
SPECT and PET are procedures in which the isotope bound to DaT2020 or derivatives thereof is measured once the agent has been administered and has reached stable binding in the ROI. Once entering the blood stream, it travels throughout the body (e.g., brain, liver, kidney, heart, lungs, and the peripheral vascular system) and binds to DAT in various regions of the body including the striatum. The time it takes to reach stable binding (to eliminate background noise to form a clearer image) depends on the ROI and the depth of the tissue penetrated by the agent.
In SPECT, the single emitted photon passes into the camera and strikes a scintillation crystal which, in turn, is viewed by a large number of photomultiplier tubes. The output voltages generated by the photomultiplier tubes are fed to a position circuit which produces four output signals. These signals contain information about the position and intensity of where the photon struck the crystal (scintillations). These signals (which “unblank” or “light up” the receiver, e.g., a cathode ray oscilloscope) for each photon are then fed into the memory circuitry of a computer and stored. […] Therefore, one can obtain counts and process them for quantitation at any single moment or over varying periods of time during a single scan session. In order to construct an image, a scan session must collect millions of counts over time in order to produce enough detail for a human reader to evaluate. […]
SPECT acquisition is performed on a SPECT/CT or stand-alone SPECT with at least two imaging heads fitted with collimators (parallel-beam and fan beam collimators with manufacturer specified (or measured according to NEMA standards) planar system resolution of <8 mm FWHM (in ‘air’ at 10 cm distance). Raw projection data (or counts) are acquired as described in Djang et al. (2013) Nuclear Med. Mol. Imaging 47(2):73-80), step-and-shoot mode with angle increments of 3° can be used. […]

The nature of series [4]: sponsored clinical trials: safety and radiation dose of bolus injection. It counts as in vivo, human. The method, then:
Such buffers include, but are not limited to, ethanol (solvent), sodium hydroxide and acetic acid (pH adjustment), sodium chloride injection (isotonic vehicle). The formulation to be administered as a bolus injection has been shown in sponsored clinical trials to be safe containing a dose of up to about 8 mCi to 10 mCi of radiolabeled DaT2020 and delivered in a total volume of about 2.5 mL to about 5 mL.
The radioactivity of the dose of radiolabeled DaT2020 or of its radiolabeled derivatives, can be determined by one with skill in the art, e.g. by a nuclear medicine imaging technician. In addition, the total radioactivity of the actual administered dose is of relevance and not the volume administered to achieve this dose. The exact radioactive dose of the tracer administered is determined by calculating the difference between the radioactivity in the syringe and delivery system before and after injection. After the dose is delivered, the syringe is filled with a volume of saline equal to the administered dose volume. The syringe content is recounted under the same conditions as used to determine the dose; separately. […]

T1 sequence (Q01959 whole entry): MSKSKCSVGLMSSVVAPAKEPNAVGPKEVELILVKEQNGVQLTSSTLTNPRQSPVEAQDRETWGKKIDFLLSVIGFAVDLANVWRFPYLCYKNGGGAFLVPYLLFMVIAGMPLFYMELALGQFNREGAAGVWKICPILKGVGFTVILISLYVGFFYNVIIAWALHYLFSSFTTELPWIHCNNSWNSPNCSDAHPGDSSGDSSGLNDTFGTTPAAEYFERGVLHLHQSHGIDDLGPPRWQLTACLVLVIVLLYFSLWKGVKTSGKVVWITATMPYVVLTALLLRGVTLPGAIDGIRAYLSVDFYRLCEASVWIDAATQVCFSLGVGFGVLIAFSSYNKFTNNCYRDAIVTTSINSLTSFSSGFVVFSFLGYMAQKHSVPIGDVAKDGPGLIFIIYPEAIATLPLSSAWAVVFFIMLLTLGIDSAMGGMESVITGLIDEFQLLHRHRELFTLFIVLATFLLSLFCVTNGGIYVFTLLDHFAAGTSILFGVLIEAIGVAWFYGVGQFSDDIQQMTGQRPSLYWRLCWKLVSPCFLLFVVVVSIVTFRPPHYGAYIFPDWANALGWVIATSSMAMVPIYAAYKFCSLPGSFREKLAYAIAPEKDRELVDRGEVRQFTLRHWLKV
Chain of DAT (Q01959 whole entry, species assumed): as the sequence (Q01959 whole entry) above

`COC(=O)[C@H]1[C@@H](c2ccc(I)cc2)C[C@@H]2CC[C@H]1N2CCCF` [DaTSCAN, N-ω-fluoropropyl-2β-carbomethoxy-3β-(4-iodophenyl) nortropane]: in series [1] (123I-labeled tracer), the half-life – broadly, the time needed for the level to fall by half in the phase considered – is 13.2 h. Besides, in series [1] (after administration), the “earliest start of scanning procedure after administration” value was “at least 180 min”. Besides, in series [1] (after stable binding is reached 3 hr post-injection), the “duration for which binding remains stable” value is 3 h. For the same compound, in series [1] (post i.v. injection, comparator, 'or more'), the “time of wash-out from DAT receptors in dopaminergic neurons” value was 180 to 240 min. Also, the “SPECT image availability after i.v. injection time” value in series [1] (post i.v. injection, comparator) is 180 to 240 min. Moreover, the “time after injection until binding to striatal DAT becomes stable” value in series [1] was 3 h and 3 to 6 h; in series [1] (listed as [^123I]-FP-CIT), 3 h. Further, the “fraction of tracer available for DAT transporter binding in the brain tissue” value in series [1] (rest bound to transporters other than DAT, package insert) was “about 7%”. For the same compound, the “DAT sites bound for every one SERT site” value in series [2] was “two to three”.

On to `COC(=O)C1C(c2ccc(F)cc2)CC2CCC1N2C/C=C/[123I]` (stereo not drawn) [DaT2020, [^123I]-E-2β-carbomethoxy-3β-(4-fluorophenyl)-N-(3-iodo-E-allyl) nortropane], for which the “time after administration at which stable binding occurs” value in series [3] (after administration, scanning can begin) stood at 15 min. In series [3] (during scan after administration), the “time at which captured energy (counts) stabilizes” value is given as 14 to 18 min. In series [3] (post i.v. injection), the “SPECT image availability after i.v. injection time” value lay within 45 to 60 min and the “time of wash-out from DAT receptors in dopaminergic neurons” value was no more than 60 min. Also, the “scan time over which sufficient data for an image are collected” value in series [3] (scan starting 15 min after administration) was determined as 30 min. Moreover, the “safety of bolus injection formulation” value in series [4] (dose of up to about 8 mCi to 10 mCi, total volume about 2.5 mL to about 5 mL) is on record as “safe”. Besides, in series [4] (for 5 mCi of radiolabeled DaT2020), the effective dose entry is “approximately 4.3 mSv”.
